# In PubChem BioAssay AID2060602 (Molecular Pharmacology Branch, DTP, NCI, 2025):
# System: 648629-189-R-J1-PDC complex spheroids viability
# Assay: Anticancer human tumor 648629-189-R-J1-PDC patient-derived bladder carcinoma cell line growth inhibition [CLK]
# Conditions: for IC50: curve of first compound; for viability, T/C: stronger effect = lower value
# Procedure, shortened: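 Multi-cell-type spheroids combined patient-derived tumor cells with HUVEC endothelial cells and human mesenchymal stem cells. Paired agents were dosed in half-log steps down from about clinical Cmax, or from 10 microM where Cmax was unknown.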
# [1] = second compound 0.0316 µM, first compound 0.0316 µM
# [2] = second compound 0.0316 µM, first compound 0.1 µM
# [3] = second compound 0.1 µM, first compound 0.0316 µM
# [4] = second compound 0.1 µM, first compound 0.1 µM
# [5] = second compound 0.316 µM, first compound 0.0316 µM
# [6] = second compound 0.316 µM, first compound 0.1 µM
# [7] = second compound 1 µM, first compound 0.0316 µM
# [8] = second compound 1 µM, first compound 0.1 µM
# [9] = second compound 3.16 µM, first compound 0.0316 µM
# [10] = second compound 3.16 µM, first compound 0.1 µM
# [11] = second compound 10 µM, first compound 0.0316 µM
# [12] = second compound 10 µM, first compound 0.1 µM
# [13] = second compound 0.0316 µM, first compound 0.316 µM
# [14] = second compound 0.0316 µM, first compound 1 µM
# [15] = second compound 0.0316 µM, first compound 3.16 µM
# [16] = second compound 0.0316 µM, first compound 10 µM
# [17] = second compound 0.1 µM, first compound 0.316 µM
# [18] = second compound 0.1 µM, first compound 1 µM
# [19] = second compound 0.1 µM, first compound 3.16 µM
# [20] = second compound 0.1 µM, first compound 10 µM
# [21] = second compound 0.316 µM, first compound 0.316 µM
# [22] = second compound 0.316 µM, first compound 1 µM
# [23] = second compound 0.316 µM, first compound 3.16 µM
# [24] = second compound 0.316 µM, first compound 10 µM
# [25] = second compound 1 µM, first compound 0.316 µM
# [26] = second compound 1 µM, first compound 1 µM
# [27] = second compound 1 µM, first compound 3.16 µM
# [28] = second compound 1 µM, first compound 10 µM
# [29] = second compound 3.16 µM, first compound 0.316 µM
# [30] = second compound 3.16 µM, first compound 1 µM
# [31] = second compound 3.16 µM, first compound 3.16 µM
# [32] = second compound 3.16 µM, first compound 10 µM
# [33] = second compound 10 µM, first compound 0.316 µM
# [34] = second compound 10 µM, first compound 1 µM
# [35] = second compound 10 µM, first compound 3.16 µM
# [36] = second compound 10 µM, first compound 10 µM
# 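For viability, T/C in this document: drug exposure lasted seven days before viability readout; 100% = DMSO vehicle control wells.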
smiles,measurement,setting,value
Cn1ncnc1[C@H]1c2n[nH]c(=O)c3cc(F)cc(c23)N[C@@H]1c1ccc(F)cc1 + CN1CCN(c2cc(C(=O)Nc3cc4cc(-c5cnn(C)c5)ccc4cn3)ccn2)CC1,IC50,second compound 0.0316 µM,> 100 nM
same,IC50,second compound 0.1 µM,> 100 nM
same,IC50,second compound 0.316 µM,< 0.316 nM
same,IC50,second compound 1 µM,< 0.316 nM
same,IC50,second compound 3.16 µM,< 0.316 nM
same,IC50,second compound 10 µM,< 0.316 nM
same,"viability, T/C","second compound 0.0316 µM, first compound 0.000316 µM",129%
same,"viability, T/C","second compound 0.0316 µM, first compound 0.001 µM",116%
same,"viability, T/C","second compound 0.0316 µM, first compound 0.00316 µM",107%
same,"viability, T/C","second compound 0.0316 µM, first compound 0.01 µM",90.2%
same,"viability, T/C",[1],87.8%
same,"viability, T/C",[2],69.7%
same,"viability, T/C","second compound 0.1 µM, first compound 0.000316 µM",111%
same,"viability, T/C","second compound 0.1 µM, first compound 0.001 µM",97.2%
same,"viability, T/C","second compound 0.1 µM, first compound 0.00316 µM",94.8%
same,"viability, T/C","second compound 0.1 µM, first compound 0.01 µM",93.5%
same,"viability, T/C",[3],87.7%
same,"viability, T/C",[4],81.2%
same,"viability, T/C","second compound 0.316 µM, first compound 0.000316 µM",46%
same,"viability, T/C","second compound 0.316 µM, first compound 0.001 µM",39.1%
same,"viability, T/C","second compound 0.316 µM, first compound 0.00316 µM",43.5%
same,"viability, T/C","second compound 0.316 µM, first compound 0.01 µM",40.1%
same,"viability, T/C",[5],35.3%
same,"viability, T/C",[6],35.6%
same,"viability, T/C","second compound 1 µM, first compound 0.000316 µM",0.38%
same,"viability, T/C","second compound 1 µM, first compound 0.001 µM",0.8%
same,"viability, T/C","second compound 1 µM, first compound 0.00316 µM",0.73%
same,"viability, T/C","second compound 1 µM, first compound 0.01 µM",0.22%
same,"viability, T/C",[7],0.2%
same,"viability, T/C",[8],1.42%
same,"viability, T/C","second compound 3.16 µM, first compound 0.000316 µM",0.1%
same,"viability, T/C","second compound 3.16 µM, first compound 0.001 µM",0.5%
same,"viability, T/C","second compound 3.16 µM, first compound 0.00316 µM",0.12%
same,"viability, T/C","second compound 3.16 µM, first compound 0.01 µM",0.08%
same,"viability, T/C",[9],0.08%
same,"viability, T/C",[10],0.16%
same,"viability, T/C","second compound 10 µM, first compound 0.000316 µM",0.12%
same,"viability, T/C","second compound 10 µM, first compound 0.001 µM",0.13%
same,"viability, T/C","second compound 10 µM, first compound 0.00316 µM",0.82%
same,"viability, T/C","second compound 10 µM, first compound 0.01 µM",0.14%
same,"viability, T/C",[11],0.13%
same,"viability, T/C",[12],0.15%
Nc1ccn(C2OC(CO)C(O)C2(F)F)c(=O)n1 (stereo unspecified) + CN1CCN(c2cc(C(=O)Nc3cc4cc(-c5cnn(C)c5)ccc4cn3)ccn2)CC1,IC50,second compound 0.0316 µM,52.9 nM
same,IC50,second compound 0.1 µM,49.8 nM
same,IC50,second compound 0.316 µM,< 31.6 nM
same,IC50,second compound 1 µM,< 31.6 nM
same,IC50,second compound 3.16 µM,< 31.6 nM
same,IC50,second compound 10 µM,< 31.6 nM
same,"viability, T/C",[1],65.2%
same,"viability, T/C",[2],31.1%
same,"viability, T/C",[13],11.9%
same,"viability, T/C",[14],5.88%
same,"viability, T/C",[15],5.69%
same,"viability, T/C",[16],4.49%
same,"viability, T/C",[3],67.7%
same,"viability, T/C",[4],22.8%
same,"viability, T/C",[17],10.1%
same,"viability, T/C",[18],5.67%
same,"viability, T/C",[19],4.53%
same,"viability, T/C",[20],3.3%
same,"viability, T/C",[5],32.1%
same,"viability, T/C",[6],22.7%
same,"viability, T/C",[21],13%
same,"viability, T/C",[22],7.45%
same,"viability, T/C",[23],9.18%
same,"viability, T/C",[24],5.35%
same,"viability, T/C",[7],0.19%
same,"viability, T/C",[8],0.38%
same,"viability, T/C",[25],1.02%
same,"viability, T/C",[26],0.31%
same,"viability, T/C",[27],0.14%
same,"viability, T/C",[28],1.01%
same,"viability, T/C",[9],0.09%
same,"viability, T/C",[10],1.1%
same,"viability, T/C",[29],0.11%
same,"viability, T/C",[30],0.09%
same,"viability, T/C",[31],0.1%
same,"viability, T/C",[32],0.39%
same,"viability, T/C",[11],0.12%
same,"viability, T/C",[12],0.13%
same,"viability, T/C",[33],0.17%
same,"viability, T/C",[34],0.17%
same,"viability, T/C",[35],0.28%
same,"viability, T/C",[36],0.17%
O=c1[nH]cc(F)c(=O)[nH]1 + CN1CCN(c2cc(C(=O)Nc3cc4cc(-c5cnn(C)c5)ccc4cn3)ccn2)CC1,IC50,second compound 0.0316 µM,1470 nM
same,IC50,second compound 0.1 µM,1080 nM
same,IC50,second compound 0.316 µM,< 31.6 nM
same,IC50,second compound 1 µM,< 31.6 nM
same,IC50,second compound 3.16 µM,< 31.6 nM
same,IC50,second compound 10 µM,< 31.6 nM
same,"viability, T/C",[1],114%
same,"viability, T/C",[2],121%
same,"viability, T/C",[13],83%
same,"viability, T/C",[14],63.3%
same,"viability, T/C",[15],30.7%
same,"viability, T/C",[16],21.9%
same,"viability, T/C",[3],114%
same,"viability, T/C",[4],97.7%
same,"viability, T/C",[17],96.3%
same,"viability, T/C",[18],49.1%
same,"viability, T/C",[19],33.7%
same,"viability, T/C",[20],21.9%
same,"viability, T/C",[5],40.7%
same,"viability, T/C",[6],40.6%
same,"viability, T/C",[21],34.1%
same,"viability, T/C",[22],29.9%
same,"viability, T/C",[23],23.9%
same,"viability, T/C",[24],20.7%
same,"viability, T/C",[7],0.35%
same,"viability, T/C",[8],0.26%
same,"viability, T/C",[25],0.78%
same,"viability, T/C",[26],0.34%
same,"viability, T/C",[27],0.27%
same,"viability, T/C",[28],1.43%
same,"viability, T/C",[9],0.06%
same,"viability, T/C",[10],1.49%
same,"viability, T/C",[29],0.1%
same,"viability, T/C",[30],0.07%
same,"viability, T/C",[31],0.55%
same,"viability, T/C",[32],0.1%
same,"viability, T/C",[11],0.06%
same,"viability, T/C",[12],0.27%
same,"viability, T/C",[33],3.05%
same,"viability, T/C",[34],0.13%
same,"viability, T/C",[35],1.38%
same,"viability, T/C",[36],1.3%
